Columns and labels:
[1] = target: T1, yeast chorismate mutase (Saccharomyces cerevisiae, UniProt P32178); assay: HPLC of chorismic acid and phenylpyruvate (prephenate converted by acid); format: biochemical; set-up: gene ARO7; native enzyme in crude sonicated yeast cell extract, not purified; homodimer (known biology); 256 residues; conditions: 1 mM chorismic acid; yeast sonicate; Tris-HCl pH 8; 30 °C; ABA 10-500 µM
[2] = target: T1, yeast chorismate mutase; set-up: gene ARO7; conditions: 1 mM chorismic acid; yeast sonicate; Tris-HCl pH 8; 30 °C; tyrosine 10-500 µM; allosteric
[3] = target: T1, yeast chorismate mutase; format: biochemical; set-up: gene ARO7; native enzyme in crude sonicated yeast cell extract, not purified; homodimer (known biology); 256 residues; conditions: 1 mM chorismic acid; yeast sonicate; Tris-HCl pH 8; 30 °C

T1 sequence (P32178 whole entry): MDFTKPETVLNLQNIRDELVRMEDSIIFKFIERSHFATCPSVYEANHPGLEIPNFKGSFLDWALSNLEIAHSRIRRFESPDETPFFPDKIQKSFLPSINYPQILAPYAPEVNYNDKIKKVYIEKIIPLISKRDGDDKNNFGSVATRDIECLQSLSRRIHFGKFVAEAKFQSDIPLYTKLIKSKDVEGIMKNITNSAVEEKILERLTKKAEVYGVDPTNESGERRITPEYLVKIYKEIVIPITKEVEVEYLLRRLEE

## CC1=CC(=O)CC(C)(C)[C@@]1(O)/C=C/C(C)=C\C(=O)O [(+)-Abscisic acid, 5-(1-hydroxy-2,6,6-trimethyl-4-oxo-2-cyclohexene-1-yl)-3-methyl-pentadienoic acid]
[1]
  inhibitory concentration (range, not an IC50): 200 to 300 µM

## N[C@@H](Cc1ccc(O)cc1)C(=O)O [Tyrosine]
[2]
  optimal inhibitor concentration (not an IC50): 100 µM

## C=C(O[C@@H]1C=C(C(=O)O)C=C[C@H]1O)C(=O)O [chorismic acid]
[3]
  HPLC of chorismic acid and phenylpyruvate (prephenate converted by acid): yeast chorismate mutase catalysed the conversion of externally added chorismic acid to prephenic acid

Source: publication PMC5986790, “Rational Discovery of (+) (S) Abscisic Acid as a Potential Antifungal Agent: a Repurposing Approach” (Scientific Reports, 2018)
